Literature values as cited in patent US20140271893A1 (McNeil-PPC, Inc., priority 2013, published 2014).

What was measured:
[1] = therapeutic dose
[2] = 30 mg dose administered orally over eight hours

Compound	fraction of dose excreted unchanged in the urine [1]	metabolized to m-hydroxy-phenylglycol-sulfate, % of the dose [2]	metabolized to m-hydroxymandelic acid, % of the dose [2]	metabolized to phenylephrine-glucuronide, % of the dose [2]	metabolized to phenylephrine-sulfate, % of the dose [2]
CC(=O)Nc1ccc(O)cc1 [acetaminophen]	Less than 9%				
CNC[C@H](O)c1cccc(O)c1 [phenylephrine, (R)-1-(3-hydroxyphenyl)-2-methylaminoethanol]		6%	30%	12%	47%
